Series [1] has as its system PC-3 cell tumor xenografts. Put plainly: In vivo prostate tumor xenograft growth. Set-up: species or system athymic nude mice. The note with it: 5 mg/kg i.p., 2 days/week, from day 7 to day 25. The method, then: (§1) All animal procedures listed in this article were performed as per the protocol approved by the Institutional Animal Care and Use Committee at the Charlie Norwood Veterans Affairs Medical Center, Augusta, GA (protocol #12-06-049). PC-3 cells were grown to 60-70% confluent in 225-ml flasks. Next, cells were collected and suspended in sterile normal saline. Cell suspension (3 million cells//mouse) was injected subcutaneously (SC) in 6-8-weeks-old male athymic nude mice (Harlan, Indianapolis, IN) (n=5-6). All the treatments (DMSO, empty liposomes, free IPA-3 (5 mg/Kg), and SSL-IPA-3 (5 mg/kg) were started on day 7 from tumor implantation, and were administered two times a week (i.p.). Tumor diameters were measured with digital calipers on day 7, 14, 21, and 25, and the tumor volume in mm^3 were calculated by the modified ellipsoidal formula (Tumor volume=½[length×width^2]). Average size of the tumors prior to the treatment with free IPA-3 and SSL-IPA-3 were 42 mm^3. Mice were sacrificed on day 25 and tumors were dissected, weighed, and snap-frozen for further immunohistochemistry analysis.

Series [2] has as its system human prostate cancer cell lines PC-3, LNCaP and DU-145. The experiment in a line: In vitro cytotoxicity, MTT staining, across the prostate cancer cell lines. The series is classed as cell-based. Here is the method: (§2) The human prostate cancer cell lines PC-3, LNCaP and DU-145 and the breast cancer cell lines MCF-7 and MDA-231 were purchased from ATCC (Manassas, Va.). PC-3, LNCaP, and DU-145 cells were cultured in F12K, RPMI, and EMEM, respectively. MCF-7 and MDA-231 cells were cultured in RPMI. All culture media were supplemented with 10% FBS and 1% penicillin/streptomycin antibiotics (ATCC). All the cells were maintained at 37° C. in incubators with 5% CO2 and humidified atmosphere.
(§3) The cytotoxicity of the liposomal IPA-3 as well as the free IPA-3 was determined in three prostate cancer cell lines (PC-3, LNCaP, and DU-145) using the MTT assay (Twentyman, et al., Br J Cancer. 1987; 56: 279-85). Free IPA-3 and SSL-IPA-3 were used for comparison. Cells were seeded in 48-well tissue culture plates at 5×10^4 cells/ml and incubated at 37° C. in a 5% CO2 incubator for 24 hr. This time was sufficient for the cells to attach and resume their growth. Liposomes were diluted in the different culture media to their final concentrations and experiments were performed in triplicates. […] Plates were shaken for 15 min and absorbance was read at 590 nm using a Spectra Max M2 plate reader (BMG Lab Technologies, Inc., Durham, NC). […]

The next series relates to MDA-231 cells. The experiment in a line: In vitro cytotoxicity, MTT staining. The series is classed as cell-based. The note with it: Homo sapiens, MDA-MB-231.
Series [3] is described as follows: Body weight of tumor bearing mice. The series is classed as in vivo, athymic nude mice. Conditions: 5 mg/kg i.p., 2 days/week; after 25 days. The method, then:
as §1

The subject of series [4] is PC-3 cells. The experiment in a line: In vitro cytotoxicity, MTT staining. The series is classed as cell-based. Conditions: Homo sapiens. The method, then: as §2, §3
Another series relates to LNCaP cells. The experiment in a line: In vitro cytotoxicity, MTT staining. The series is classed as cell-based. The note with it: Homo sapiens. Here is the method: as §2, §3
Another series relates to DU-145 cells. Put plainly: In vitro cytotoxicity, MTT staining. The series is classed as cell-based, human. The method, then:
as §2, §3

Series [5] concerns PC-3 cell tumor xenografts. Conditions: daily administration (Al-Azayzih et al. 2015); cited from earlier work.
In series [6] the test system is PC-3 cells. Put plainly: Cell death by annexin V and PI staining, flow cytometry. The series is classed as cell-based, human. The note with it: 48 hr, free IPA-3 20-30 μM.
In another series the test system is MCF-7 cells. Put plainly: In vitro cytotoxicity, MTT staining. The note with it: Homo sapiens, MCF7. The series is classed as cell-based.
Series [7] concerns PC-3 cell prostate tumor xenografts. The experiment in a line: TUNEL assay of apoptosis in tumor xenograft sections. The series is classed as in vivo, athymic nude mice. Conditions: 5 mg/kg i.p., 2 days/week; day 25. The method, then: as §1
The TUNEL assay for in situ detection of apoptosis was performed using the ApopTag® Fluorescein in situ Apoptosis detection kit (Millipore, MA) as described previously8. Frozen sections taken from prostate tumor xenografts were fixed in 2% paraformaldehyde at 4° C. for 30 min. […]

The conditions of series [8]: free form (Rudolph et al. 2015); cited from earlier work.

The values that follow come from patent US11969396B2, “IPA-3-loaded liposomes and methods of use thereof” (University of Georgia Research Foundation, Inc., priority 2016, dated 2024).

In general, IC50 refers to the concentration at which inhibition is half-maximal. For `Oc1ccc2ccccc2c1SSc1c(O)ccc2ccccc12` [IPA-3, 1,1′-Dithiodi-2-naphthtol], in [1], the “PC-3 cell tumor xenograft growth” value is “did not have a significant effect”. Moreover, the IC50 was 10 to 35 µM in [2] (Homo sapiens, depending on the cell line, MTT staining); 8 µM with MDA-231 cells; 12 µM in the series on PC-3 cells [4]; 10 µM with LNCaP cells; around 32 µM in the series with DU-145 cells (Homo sapiens, DU-145, DU-145); 25 µM in the series on MCF-7 cells. In addition, the “effect on MTT staining” value in series [2] (concentrations of 5-30 μM, 24, 48, 72 hrs) was “concentration-and time-dependent decreases in MTT staining”. The “effect on body weight of mice” value in [3] is “no significant effect”. Moreover, the “susceptibility of DU-145 cells compared to PC-3 and LNCaP cells” value in the series with DU-145 cells was “less susceptible”. The “prostate tumor xenograft growth” value in series [5] was “reduced prostate tumor xenograft growth”. Also, the “percent of cells staining positive for annexin V alone” value with PC-3 cells [6] is “significantly increased”. Besides, the “percent of cells staining positive for both annexin V and PI” value with PC-3 cells [6] was “significantly increased”. In addition, the “number of apoptotic (TUNEL positive) cells per field compared to control groups” value in series [7] is “significant increases”. Further, the half-life in vivo entry in series [8] was “very short half-life”.
